Laboratory results published in article PMC10396955, “2-Oxabicyclo[2.1.1]hexanes as saturated bioisosteres of the ortho-substituted phenyl ring” (Nature Chemistry, 2023).
≈ marks a conversion by molar mass, not a printed value.

System: Fusarium oxysporum
Test: Antifungal activity, agar well diffusion method
Format: cell-based
Conditions: Fusarium oxysporum; 0.0039 mg/mL; zones st (static growth); read-out: Diameter of inhibition zone
Excerpt: (§1) The agar well diffusion method is widely used to evaluate the antimicrobial activity of different substances (S. Magaldi, S. Mata-Essayag, C. Hartung de Capriles, et al. Well diffusion for antifungal susceptibility testing, Int. J. Infect. Dis. 8, 2004 , 39–45; C. Valgas, S. M. De Souza, E. F. A. Smânia, et al. Screening methods to determine antibacterial activity of natural products. Braz. J. Microbiol. 38 , 2007 , 369–380). Similarly to the procedure used in a disk-diffusion method, the agar plate surface is inoculated by spreading a volume of the microbial inoculum over the entire agar surface. Then, a hole with a diameter of 6 to 8 mm is punched aseptically with a sterile cork borer or a tip, and a volume […] of the antimicrobial agent or extract solution at desired concentration is introduced into the well. Then, agar plates are incubated under suitable conditions depending upon the test microorganism. The antimicrobial agent diffuses in the agar medium and inhibits the growth of the microbial strain tested (M. Balouiri, M. Sadiki, S. K. Ibnsouda. Methods for in vitro evaluating […]
(§2) Agar well diffusion method is a qualitative method used to measure the ability of compounds to inhibit microbial growth. This test is a quick and easy way to measure and compare levels of inhibitory […]
(§3) Antifungal activity of the synthetic compounds using agar well diffusion The compunds were tested towards plant pathogens Fusarium oxysporum Schltdl. and F. verticillioides (Sacc.) Nirenberg isolated from crops. Antifungal activity of the synthetic compounds was evaluated with using of an agar well diffusion method based on a disk diffusion assay for testing filamentous fungi (CLSI M51-A) [CLSI. Method for Antifungal Disk Diffusion Susceptibility Testing of Nondermatophyte Filamentous Fungi; Approved Guideline.CLSI document M51-A. Wayne, PA:
(§4) Clinical and Laboratory Standards Institute; 2010. This method is standardized for Altenaria , Aspergillus, Bipolaris , Fusarium , order Mucorales etc.
(§5) Preparation of synthetic compounds for mycological assay
(§6) Solutions of fungicides and its analogs were diluted in dimethyl sulfoxide (DMSO) to produce the […]
(§7) Antifungal well diffusion method
(§8) The fungal strains were cultured on potato dextrose agar slants (PDA, Eur. Pharm.) and incubated at 25 °C for 5 days. Sterile distilled water was used to cover and resuspend the colonies. Suspension of […]
(§9) conidia was adjusted to inoculums 5×10^6 conidia/mL. The suspension was further diluted in warm PDA 1:10 to obtain final working inoculums 5×10^5 conidia/mL.
(§10) Polypropylene cylinders (d, 5 mm) were placed on the surface and wells punched in the medium were used as reservoir of the test substances in different concentrations. 40 µl of solutions containing 0.0039-1.0 mg/mL of a test compound was added into the wells.
(§11) Each compound was tested in triplicate at different concentrations. Growth control was a well with 40 µl of DMSO, which was used for test components dilution.
(§12) Plates incubated at 25 °C for 72 h. The test compounds at known concentration into contact with an inoculated medium then exerts a growth-inhibiting effect then a clear zone (the zone of inhibition) appears around the test product. Diameter of a clear zone around the well is measured at the end of the incubation period in millimeters. If the fungal strain is susceptible to the antifungal agent, then a zone of inhibition appears on the agar plate. If it is resistant to the test compound, then no zone is evident.
(§13) The size of the zone of inhibition is usually related to the level of antifungal activity present in the […]
(§14) The growth rate of Fusarium oxysporum and F. verticillioides for each well was determined visually and compared with the growth of control.
(§15) As shown in the table the antifungal activity of the 6 compounds, - Fluxapyroxad, compound 28, compound 29, Boscalid, compound 30, compound 31, - were tested against plant pathogenic fungal […]
(§16) toward Fusarium oxysporum (Table S5, Figure S16). Inhibition zones of all compounds characterized […]
Molecule Cn1cc(C(=O)N[C@@H]2[C@H]3C[C@]2(c2cc(F)c(F)c(F)c2)CO3)c(C(F)F)n1 (relative stereo) [Compound 29] has a zone of inhibition at 3.9 µg/mL of 9 ± 1.2 mm.

Same assay, conditions: Fusarium oxysporum; 0.0078 mg/mL; zones st (static growth); read-out: Diameter of inhibition zone
With Cn1cc(C(=O)N[C@@H]2[C@H]3C[C@]2(c2cc(F)c(F)c(F)c2)CO3)c(C(F)F)n1 (relative stereo) [Compound 29] the zone of inhibition at […] was 13 ± 1.5 mm.

Same assay, conditions: Fusarium oxysporum; 0.0156 mg/mL; zones st (static growth); read-out: Diameter of inhibition zone
Cn1cc(C(=O)N[C@@H]2[C@H]3C[C@]2(c2cc(F)c(F)c(F)c2)CO3)c(C(F)F)n1 (relative stereo) [Compound 29] gave a zone of inhibition at 15.6 µg/mL of 14 ± 1.2 mm.

Same assay, conditions: Fusarium oxysporum; 0.03125 mg/mL; zones st (static growth); read-out: Diameter of inhibition zone
Cn1cc(C(=O)N[C@@H]2[C@H]3C[C@]2(c2cc(F)c(F)c(F)c2)CO3)c(C(F)F)n1 (relative stereo) [Compound 29] showed a zone of inhibition at 31.25 µg/mL of 18 ± 1.5 mm.

Same assay, conditions: Fusarium oxysporum; 0.0625 mg/mL; zones st (static growth); read-out: Diameter of inhibition zone
For Cn1cc(C(=O)N[C@@H]2[C@H]3C[C@]2(c2cc(F)c(F)c(F)c2)CO3)c(C(F)F)n1 (relative stereo) [Compound 29], the zone of inhibition at 62.5 µg/mL was 18 ± 0.6 mm.

Same assay, conditions: Fusarium oxysporum; 0.125 mg/mL; zones st (static growth); read-out: Diameter of inhibition zone
Molecule Cn1cc(C(=O)N[C@@H]2[C@H]3C[C@]2(c2cc(F)c(F)c(F)c2)CO3)c(C(F)F)n1 (relative stereo) [Compound 29] has a zone of inhibition at 125 µg/mL of 23 ± 0.6 mm.

Same assay, conditions: Fusarium oxysporum; 0.25 mg/mL; zones st (static growth); read-out: Diameter of inhibition zone
Work on Cn1cc(C(=O)N[C@@H]2[C@H]3C[C@]2(c2cc(F)c(F)c(F)c2)CO3)c(C(F)F)n1 (relative stereo) [Compound 29] yielded a zone of inhibition at 250 µg/mL of 32 ± 1.7 mm.

Same assay, conditions: Fusarium oxysporum; 0.5 mg/mL; zones st (static growth); read-out: Diameter of inhibition zone
Cn1cc(C(=O)N[C@@H]2[C@H]3C[C@]2(c2cc(F)c(F)c(F)c2)CO3)c(C(F)F)n1 (relative stereo) [Compound 29] showed a zone of inhibition at 500 µg/mL of 36 ± 1 mm.

Same assay, conditions: Fusarium oxysporum; 1 mg/mL; 40 µl per well, 25 °C, 72 h; zones st (static growth); read-out: Diameter of inhibition zone
Cn1cc(C(=O)N[C@@H]2[C@H]3C[C@]2(c2cc(F)c(F)c(F)c2)CO3)c(C(F)F)n1 (relative stereo) [Compound 29] gave a zone of inhibition at 1000 µg/mL of 38 ± 1.53 mm.

Same assay, conditions: agar well diffusion; tested 0.0039-1.0 mg/mL
In the case of Cn1cc(C(=O)N[C@@H]2[C@H]3C[C@]2(c2cc(F)c(F)c(F)c2)CO3)c(C(F)F)n1 (relative stereo) [Compound 29], the lowest inhibition concentration is reported as 0.0039 mg/mL.

System: Fusarium verticillioides
Test: Antifungal activity, agar well diffusion method
Format: cell-based
Conditions: Fusarium verticillioides; 0.0039 mg/mL; 0 = absence of antifungal activity; read-out: Diameter of inhibition zone
Excerpt: as §1, §2, §3, §4, §5, §6, §7, §8, §9, §10, §11, §12, §13, §14, §15, §16
In the case of Cn1cc(C(=O)N[C@@H]2[C@H]3C[C@]2(c2cc(F)c(F)c(F)c2)CO3)c(C(F)F)n1 (relative stereo) [Compound 29], the zone of inhibition at 3.9 µg/mL is reported as 0 mm.

Same assay, conditions: Fusarium verticillioides; 0.0078 mg/mL; 0 = absence of antifungal activity; read-out: Diameter of inhibition zone
Molecule Cn1cc(C(=O)N[C@@H]2[C@H]3C[C@]2(c2cc(F)c(F)c(F)c2)CO3)c(C(F)F)n1 (relative stereo) [Compound 29] has a zone of inhibition at […] of 10 mm.

Same assay, conditions: Fusarium verticillioides; 0.0156 mg/mL; 0 = absence of antifungal activity; read-out: Diameter of inhibition zone
Cn1cc(C(=O)N[C@@H]2[C@H]3C[C@]2(c2cc(F)c(F)c(F)c2)CO3)c(C(F)F)n1 (relative stereo) [Compound 29] showed a zone of inhibition at 15.6 µg/mL of 15 ± 0.6 mm.

Same assay, conditions: Fusarium verticillioides; 0.03125 mg/mL; 0 = absence of antifungal activity; read-out: Diameter of inhibition zone
Cn1cc(C(=O)N[C@@H]2[C@H]3C[C@]2(c2cc(F)c(F)c(F)c2)CO3)c(C(F)F)n1 (relative stereo) [Compound 29] gave a zone of inhibition at 31.25 µg/mL of 26 ± 1.2 mm.

Same assay, conditions: Fusarium verticillioides; 0.0625 mg/mL; 0 = absence of antifungal activity; read-out: Diameter of inhibition zone
With Cn1cc(C(=O)N[C@@H]2[C@H]3C[C@]2(c2cc(F)c(F)c(F)c2)CO3)c(C(F)F)n1 (relative stereo) [Compound 29] the zone of inhibition at 62.5 µg/mL was 31 ± 1.2 mm.

Same assay, conditions: Fusarium verticillioides; 0.125 mg/mL; 0 = absence of antifungal activity; read-out: Diameter of inhibition zone
Cn1cc(C(=O)N[C@@H]2[C@H]3C[C@]2(c2cc(F)c(F)c(F)c2)CO3)c(C(F)F)n1 (relative stereo) [Compound 29] showed a zone of inhibition at 125 µg/mL of 35 ± 1 mm.

Same assay, conditions: Fusarium verticillioides; 0.25 mg/mL; 0 = absence of antifungal activity; read-out: Diameter of inhibition zone
Molecule Cn1cc(C(=O)N[C@@H]2[C@H]3C[C@]2(c2cc(F)c(F)c(F)c2)CO3)c(C(F)F)n1 (relative stereo) [Compound 29] has a zone of inhibition at 250 µg/mL of 39 ± 1.2 mm.

Same assay, conditions: Fusarium verticillioides; 0.5 mg/mL; 0 = absence of antifungal activity; read-out: Diameter of inhibition zone
For Cn1cc(C(=O)N[C@@H]2[C@H]3C[C@]2(c2cc(F)c(F)c(F)c2)CO3)c(C(F)F)n1 (relative stereo) [Compound 29], the zone of inhibition at 500 µg/mL was 41 ± 1.7 mm.

Same assay, conditions: Fusarium verticillioides; 1 mg/mL; 40 µl per well, 25 °C, 72 h; 0 = absence of antifungal activity; read-out: Diameter of inhibition zone
With Cn1cc(C(=O)N[C@@H]2[C@H]3C[C@]2(c2cc(F)c(F)c(F)c2)CO3)c(C(F)F)n1 (relative stereo) [Compound 29] the zone of inhibition at 1000 µg/mL was 45 ± 0.6 mm.

Same assay, conditions: agar well diffusion; tested 0.0039-1.0 mg/mL
Molecule Cn1cc(C(=O)N[C@@H]2[C@H]3C[C@]2(c2cc(F)c(F)c(F)c2)CO3)c(C(F)F)n1 (relative stereo) [Compound 29] has a lowest inhibition concentration of 0.0078 mg/mL.

System: not listed separately
Test: Kinetic solubility in phosphate-buffered saline, pH 7.4
Format: physicochemical
Conditions: phosphate-buffered saline, 25 °C, pH 7.4, aqueous buffer, kinetic from dmso stock, Table S1; incubation 1; read-out: PBS solubility, pH 7.4, Incubation 1
Description: Analysis of Aqueous Solubility […]
compound (Ondansetron) were assessed for kinetic solubility in phosphate-buffered saline, pH […]
Phosphate buffered saline, pH 7.4 (Sigma-Aldrich, USA; Cat #P3813) […]
MultiScreen HTS 96 Well Filter Plates (Millipore, Ireland; Cat # MSGVS2210) […]
Matrix Multichannel Electronic Pipette 2-125 µL, 5-250 µL, 15-1250 µL (Thermo Scientific, […]
Vacuum pump (Millipore, USA; Model # XX5500000)
The measurements were performed using SpectraMax Plus reader in UV-Vis mode. Acquisition and analysis of the data were performed using SoftMax Pro v.5.4 (Molecular Devices) and Excel […]
Kinetic solubility assay was performed according to the Enamine’s aqueous solubility SOP.
Briefly, using a 20 mM stock solution of the compound in 100% DMSO dilutions were prepared to a theoretical concentration of 400 μM in duplicates in phosphate-buffered saline pH 7.4 […]
for two hours and then filtered through HTS filter plates using a vacuum manifold. The filtrates of test compounds were diluted 2-fold with acetonitrile with 2% DMSO before measuring.
In parallel, compound dilutions in acetonitrile/PBS (1:1) were prepared to theoretical […]
DMSO to generate calibration curves. Ondansetron was used as reference compound to control proper assay performance. 200 μl of each sample was transferred to 96-well plate and measured in 200-550 nm range with 5 nm step.
The concentrations of compounds in PBS filtrate are calculated using a dedicated Microsoft Excel calculation script. Proper absorbance wavelengths for calculations are selected for each compound manually based on absorbance maximums (absolute absorbance unit values for the minimum and maximum concentration points within 0 – 3 OD range). Each of the final datasets is additionally visually evaluated by the operator and goodness of fit (R2) is calculated for each calibration curve. The effective range of this assay is approximately 2-400 μM and the […]
Work on Cn1cc(C(=O)N[C@@H]2[C@H]3C[C@]2(c2cc(F)c(F)c(F)c2)CO3)c(C(F)F)n1 (relative stereo) [Compound 29] yielded a solubility at 2 h of 151 µM (≈ 58.5 µg/mL).

Same assay, conditions: phosphate-buffered saline, 25 °C, pH 7.4, aqueous buffer, kinetic from dmso stock, Table S1; incubation 2; read-out: PBS solubility, pH 7.4, Incubation 2
Cn1cc(C(=O)N[C@@H]2[C@H]3C[C@]2(c2cc(F)c(F)c(F)c2)CO3)c(C(F)F)n1 (relative stereo) [Compound 29] gave a solubility at 2 h of 158 µM (≈ 61.2 µg/mL).

Same assay, conditions: phosphate-buffered saline, 25 °C, pH 7.4, aqueous buffer, kinetic from dmso stock, experimental kinetic solubility in phosphate-buffered saline at pH 7.4; Fig. 3; read-out: Solubility
With Cn1cc(C(=O)N[C@@H]2[C@H]3C[C@]2(c2cc(F)c(F)c(F)c2)CO3)c(C(F)F)n1 (relative stereo) [Compound 29] the solubility at 2 h was 155 µM (≈ 60 µg/mL).
